For 20 compounds, Ki, Ratio Ki(app) and EC50 results are on record in ChEMBL document CHEMBL1146051, “Novel inhibitors of hepatitis C NS3-NS4A serine protease derived from 2-aza-bicyclo[2.2.1]heptane-3-carboxylic acid” (Bioorg Med Chem Lett, 2006).

Broadly, the EC50 is the midpoint of the concentration-response curve. A higher EC50 goes with lower potency in that assay.

Sequence of NS3 (A3EZJ3 whole entry): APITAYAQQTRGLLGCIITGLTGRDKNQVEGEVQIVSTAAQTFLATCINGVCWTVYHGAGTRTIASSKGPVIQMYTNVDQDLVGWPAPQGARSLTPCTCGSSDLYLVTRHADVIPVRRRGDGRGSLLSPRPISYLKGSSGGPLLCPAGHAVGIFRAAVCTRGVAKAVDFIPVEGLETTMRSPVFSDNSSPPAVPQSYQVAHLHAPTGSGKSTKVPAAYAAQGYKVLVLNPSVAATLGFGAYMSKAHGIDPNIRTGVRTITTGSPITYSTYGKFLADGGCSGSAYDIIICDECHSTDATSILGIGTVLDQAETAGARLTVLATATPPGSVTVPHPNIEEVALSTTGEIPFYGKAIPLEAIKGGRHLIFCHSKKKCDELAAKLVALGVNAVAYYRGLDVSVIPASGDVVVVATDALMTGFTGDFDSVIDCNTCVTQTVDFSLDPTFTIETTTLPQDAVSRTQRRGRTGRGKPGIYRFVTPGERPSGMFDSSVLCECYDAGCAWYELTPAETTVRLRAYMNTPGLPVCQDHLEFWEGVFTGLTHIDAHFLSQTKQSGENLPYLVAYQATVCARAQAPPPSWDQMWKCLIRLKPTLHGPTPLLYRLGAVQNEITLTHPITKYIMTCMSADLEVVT

One test addresses NS3 (Hepatitis C virus, UniProt A3EZJ3). Nature of the test: Inhibitory activity against HCV NS3 protease. Also on record: species or system Hepacivirus hominis. Conditions: read-out: Ki.
With `CC(C)CC(NC(=O)[C@@H]1C2CCC(C2)N1C(=O)[C@@H](NC(=O)OC(C)(C)C)C1CCCCC1)C(=O)C(=O)NCC(=O)N[C@H](C(=O)N(C)C)c1ccccc1` (some centres undefined), the Ki came to 53 nM.

For `CN(C)C(=O)[C@@H](NC(=O)CNC(=O)C(=O)C(CC1CC1)NC(=O)[C@@H]1C2CCC(C2)N1C(=O)[C@@H](NC(=O)NC(C)(C)C)C1CCCCC1)c1ccccc1` (some centres undefined), the Ki amounted to 19 nM.

Staying with this test, now noted: read-out: Ki app.
Turning to `CN(C)C(=O)[C@@H](NC(=O)CNC(=O)C(=O)C(CC1CCC1)NC(=O)[C@@H]1C2CCC(C2)N1C(=O)[C@@H](NC(=O)NC(C)(C)C)C(C)(C)C)c1ccccc1` (some centres undefined), the Ki is 13 nM. Still for that read-out and setting: the result for `CCCC(NC(=O)[C@@H]1C2CCC(C2)N1C(=O)[C@@H](NC(=O)OC(C)(C)C)C(C)(C)C)C(=O)C(=O)NCC(=O)O` (some centres undefined) reads 3800 nM. For `CN(C)C(=O)[C@@H](NC(=O)CNC(=O)C(=O)C(CC1CCC1)NC(=O)[C@@H]1C2CCC(C2)N1C(=O)[C@@H](NC(=O)NC(C)(C)C)C1CCCCC1)c1ccccc1` (some centres undefined), the Ki was found to be 21 nM. Same read-out and setting: the result for `CCCC(NC(=O)[C@@H]1C2CCC(C2)N1C(=O)[C@@H](NC(=O)OC(C)(C)C)C(C)(C)C)C(=O)C(=O)NCC(=O)N[C@H](C(=O)N(C)C)c1ccccc1` (some centres undefined) reads 110 nM; that for `C=CCNC(=O)C(=O)C(CCC)NC(=O)[C@@H]1C2CCC(C2)N1C(=O)[C@@H](NC(=O)OC(C)(C)C)C(C)(C)C` (some centres undefined), 5500 nM.

Take `CCCC(NC(=O)[C@@H]1C2CC([C@H]3C[C@@H]23)N1C(=O)[C@@H](NC(=O)C(C)(C)C)C1CCCCC1)C(=O)C(=O)NCC(=O)N[C@H](C(=O)N(C)C)c1ccccc1` (some centres undefined): the Ki amounted to 90 nM. For the compound `CCCC(NC(=O)[C@@H]1C2CCC(C2)N1C(=O)[C@@H](NC(=O)OC(C)(C)C)C1CCCCC1)C(=O)C(=O)NCC(=O)N[C@H](C(=O)N(C)C)c1ccccc1` (some centres undefined), the Ki came out at 90 nM. Same read-out and setting: the result for `CCCCC(NC(=O)[C@@H]1C2CCC(C2)N1C(=O)[C@@H](NC(=O)OC(C)(C)C)C(C)(C)C)C(=O)C(=O)NCC(=O)N[C@H](C(=O)N(C)C)c1ccccc1` (some centres undefined) reads 81 nM; that for `CN(C)C(=O)[C@@H](NC(=O)CNC(=O)C(=O)C(CC1CCC1)NC(=O)[C@@H]1C2CCC(C2)N1C(=O)[C@@H](NC(=O)OC(C)(C)C)C(C)(C)C)c1ccccc1` (some centres undefined), 27 nM; that for `CN(C)C(=O)[C@@H](NC(=O)CNC(=O)C(=O)C(CC1CC1)NC(=O)[C@@H]1C2CCC(C2)N1C(=O)[C@@H](NC(=O)OC(C)(C)C)C1CCCCC1)c1ccccc1` (some centres undefined), 20 nM. Take `CC(C)CC(NC(=O)[C@@H]1C2CCC(C2)N1C(=O)[C@@H](NC(=O)OC(C)(C)C)C(C)(C)C)C(=O)C(=O)NCC(=O)N[C@H](C(=O)N(C)C)c1ccccc1` (some centres undefined): the Ki turned out to be 40 nM. Still for that read-out and setting: then `CN(C)C(=O)[C@@H](NC(=O)CNC(=O)C(=O)C(CC1CCC1)NC(=O)[C@@H]1C2CCC(C2)N1C(=O)[C@@H](NC(=O)OC(C)(C)C)C1CCCCC1)c1ccccc1` (some centres undefined), with 51 nM. On the same count and under the same terms, the result for `CCCC(NC(=O)[C@@H]1C2CCC(C2)N1C(=O)[C@@H](NC(=O)OC(C)(C)C)C(C)(C)C)C(=O)C(N)=O` (some centres undefined) reads 6900 nM; that for `CN(C)C(=O)[C@@H](NC(=O)CNC(=O)C(=O)C(CC1CC1)NC(=O)[C@@H]1C2CCC(C2)N1C(=O)[C@@H](NC(=O)OC(C)(C)C)C(C)(C)C)c1ccccc1` (some centres undefined), 19 nM. As to `CCCC(NC(=O)[C@@H]1C2CCC(C2)N1C(=O)[C@@H](NC(=O)OC(C)(C)C)C(C)(C)C)C(=O)C(=O)NCC(=O)OCc1ccccc1` (some centres undefined), the Ki is 1500 nM. In the case of `CCCCC(NC(=O)[C@@H]1C2CC([C@H]3C[C@@H]23)N1C(=O)[C@@H](NC(=O)C(C)(C)C)C1CCCCC1)C(=O)C(=O)NCC(=O)N[C@H](C(=O)N(C)C)c1ccccc1` (some centres undefined), the Ki came out at 27 nM.

In the case of `CN(C)C(=O)[C@@H](NC(=O)CNC(=O)C(=O)C(CC1CC1)NC(=O)[C@@H]1C2CCC(C2)N1C(=O)[C@@H](NC(=O)NC(C)(C)C)C(C)(C)C)c1ccccc1` (some centres undefined), the Ki worked out at 10 nM.

Test system in another test: not listed separately
The test is described as follows: Selectivity for HNE over HCV NS3 protease.
Settings: not given
As to `CN(C)C(=O)[C@@H](NC(=O)CNC(=O)C(=O)C(CC1CC1)NC(=O)[C@@H]1C2CCC(C2)N1C(=O)[C@@H](NC(=O)NC(C)(C)C)C(C)(C)C)c1ccccc1` (some centres undefined), the Ratio Ki(app) was 35.

The subject of the next test is Hepatitis C virus. Nature of the test: Inhibition of HCV replication in a cellular replicon assay. The class given is functional, organism-based, Hepacivirus hominis.
Settings: not given
On the technique in general: A replicon is a self-replicating genome or part of one, used to study replication in cells.
Compound `CN(C)C(=O)[C@@H](NC(=O)CNC(=O)C(=O)C(CC1CCC1)NC(=O)[C@@H]1C2CCC(C2)N1C(=O)[C@@H](NC(=O)NC(C)(C)C)C(C)(C)C)c1ccccc1` (some centres undefined) yielded an EC50 of 2000 nM. `CCCCC(NC(=O)[C@@H]1C2CCC(C2)N1C(=O)[C@@H](NC(=O)OC(C)(C)C)C1CCCCC1)C(=O)C(=O)NCC(=O)N[C@H](C(=O)N(C)C)c1ccccc1` (some centres undefined) came in with an EC50 of 600 nM.

For the next test, the target named is T1, Neutrophil elastase (Homo sapiens, UniProt P08246).
T1 sequence (P08246 whole entry): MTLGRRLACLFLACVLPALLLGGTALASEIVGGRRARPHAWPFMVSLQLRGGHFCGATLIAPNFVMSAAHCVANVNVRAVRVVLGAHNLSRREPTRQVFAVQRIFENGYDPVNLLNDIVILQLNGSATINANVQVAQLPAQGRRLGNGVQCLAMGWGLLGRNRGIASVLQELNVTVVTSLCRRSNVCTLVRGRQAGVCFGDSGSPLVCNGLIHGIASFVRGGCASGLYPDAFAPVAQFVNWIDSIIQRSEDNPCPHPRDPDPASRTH
The test is described as follows: Inhibitory activity against HNE. Conditions: read-out: Ki app.
With `CN(C)C(=O)[C@@H](NC(=O)CNC(=O)C(=O)C(CC1CCC1)NC(=O)[C@@H]1C2CCC(C2)N1C(=O)[C@@H](NC(=O)NC(C)(C)C)C(C)(C)C)c1ccccc1` (some centres undefined), the Ki came to 5300 nM. `CN(C)C(=O)[C@@H](NC(=O)CNC(=O)C(=O)C(CC1CC1)NC(=O)[C@@H]1C2CCC(C2)N1C(=O)[C@@H](NC(=O)NC(C)(C)C)C(C)(C)C)c1ccccc1` (some centres undefined): the Ki turned out to be 340 nM.
